In patent US9181258B2, “Substituted 3,4-dihydropyrrolo[1,2-a]pyrazin-1(2H)-ones as protein kinase inhibitors” (NERVIANO MEDICAL SCIENCES S.R.L., priority 2011, dated 2015):
pIC50: −log10 of the molar value. Counter-ions that a name gives are not always drawn.

How the values were obtained:
human PIM1 = human PIM1 (Homo sapiens (Human), UniProt P11309); experiment: Biochemical assay for inhibitors of PIM1 kinase activity (trans-phosphorylation, Dowex technique); conditions: ATP 200 μM, Aktide 25 μM, enzyme 1 nM; read-out: PIM-1 IC50
Description: Biochemical Assay for Inhibitors of PIM1 Kinase Activity
The inhibitory activity of putative kinase inhibitors and the potency of selected compounds were determined using a trans-phosphorylation assay.
Specific peptide or protein substrates were trans-phosphorylated by their specific ser-thr or tyr kinase in the presence of ATP traced with ^33P-γ-ATP, and in the presence of their own optimal buffer and cofactors.
At the end of the phosphorylation reaction, more than 98% unlabeled ATP and radioactive ATP were captured by an excess of the ion exchange dowex resin; the resin then settled down to the bottom of the reaction plate by gravity. Supernatant was subsequently withdrawn and transferred into a counting plate, then evaluated by β-counting.
Reagents/Assay Conditions i. Dowex Resin Preparation
500 g of wet resin (SIGMA, custom prepared resin DOWEX 1×8 200-400 mesh, 2.5 Kg) were weighed out and diluted to 2 L in 150 mM sodium formate, pH 3.00.
The resin was allowed to settle down (some hours) and then the supernatant was discarded.
After three washes as above over a couple of days, the resin was allowed to settle and two volumes (wrt the resin volume) of 150 mM sodium formate buffer were added.
The pH was then measured and should have been around 3.00.
The washed resin was stable for more than one week; the stock resin was kept at 4° C. before use.
The buffer for PIM1 assay was composed of HEPES 50 mM, at pH 7.5, with 10 mM MgCl2, 1 mM DTT, 3 μM NaVO3, and 0.2 mg/mL BSA.
Full-length human PIM1 was expressed and purified as described in Bullock A N, et al., J. Biol. Chem. 2005, 280, 41675-82.
1.7 μM PIM1 was incubated 1 h at 28° C. in the presence of 125 μM ATP.
ATP concentration: 200 μM; ^33P-γ-ATP: 6 nM; Enzyme concentration: 1 nM Substrate concentration Aktide (Chemical Abstract Service Registry Number 324029-01-8): 25 μM iv. Robotized Dowex Assay
The test mix consisted of:
1) 3× Enzyme mix (done in Kinase Buffer 3×), 5 μL/well
2) 3× substrate and ATP mix (done in ddH2O), together with ^33P-γ-ATP, 5 μL/well 3) 3× test compounds (diluted into ddH2O—3% DMSO)—5 μL/well See below for compound dilution and assay scheme […]
An automated station (Biomek FX, Beckman) was used for serial dilutions, producing 1:3 dilutions in 100% DMSO, from line A1 to A10, for all the compounds in the column.
Data were analyzed by an internally customized version of the “Assay Explorer” SW package, which provided sigmoidal fitting of the ten-dilution curves for IC50 determination in secondary assay/hit confirmation routines.

human PIM2 = human PIM2 (Homo sapiens (Human), UniProt Q9P1W9); experiment: PIM2 kinase inhibition assay: Dowex technique; format: biochemical; conditions: ATP 4 μM, Aktide 5 μM, enzyme 1.5 nM; read-out: PIM-2 IC50
Description: Method for PIM2 Kinase Inhibition Assay: Dowex Technique
The buffer for PIM2 assay was composed of HEPES 50 mM, at pH 7.5, with 1 mM MgCl2, 1 mM DTT, 3 μM Na3VO4, and 0.2 mg/mL BSA.
Full-length human PIM2 was expressed and purified as described in Fedorov O, et al., PNAS 2007 104, 51, 20523-28. ii. Assay Conditions (Final Concentrations)
Enzyme concentration=1.5 nM; ATP=4 μM; ^33P-γ-ATP=1 nM
Aktide substrate (Chemical Abstract Service Registry Number 324029-01-8)=5 μM iii. Robotized Dowex Assay
See above: same procedure as described for PIM1.

BaF3-PIM1 cells = experiment: In vitro cell proliferation assay (CellTiter-Glo), BaF3-PIM1; format: cell-based; conditions: 72 hours
Description: In Vitro Cell Proliferation Assay
BaF3-PIM1 and MV-4-11 cells were seeded at 125 cells/well and 1250 cells/well respectively in a 384-well white plates in complete medium and treated with compounds dissolved in 0.1% DMSO, 24 h after seeding.
The cells were incubated at 37° C. and 5% CO2 and after 72 hours the plates were processed using CellTiter-Glo assay (Promega) following the manufacturer's instruction.
CellTiter-Glo was a homogenous method based on the quantification of the ATP present, an indicator of metabolitically active cells. ATP was quantified using a system based on luciferase and D-luciferin resulting into light generation. The luminescent signal was proportional to the number of cells present in culture.
Briefly 25 μl/well reagent solution were added to each wells and after 5 minutes shacking microplates were red by Envision (PerkinElmer) luminometer. The luminescent signal was proportional to the number of cells present in culture.
Inhibitory activity was evaluated comparing treated versus control data using Assay Explorer (MDL) program. IC50 was calculated using sigmoidal interpolation curve.

Chain of human PIM1 (P11309 whole entry): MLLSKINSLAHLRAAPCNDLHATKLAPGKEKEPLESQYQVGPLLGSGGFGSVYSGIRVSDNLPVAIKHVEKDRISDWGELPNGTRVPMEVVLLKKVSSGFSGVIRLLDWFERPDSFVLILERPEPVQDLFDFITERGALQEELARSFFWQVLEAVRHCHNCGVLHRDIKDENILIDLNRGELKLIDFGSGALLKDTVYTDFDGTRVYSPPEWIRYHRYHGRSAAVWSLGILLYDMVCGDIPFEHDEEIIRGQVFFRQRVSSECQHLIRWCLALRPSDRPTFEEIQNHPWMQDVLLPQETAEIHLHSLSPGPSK
Chain of human PIM2 (Q9P1W9 whole entry): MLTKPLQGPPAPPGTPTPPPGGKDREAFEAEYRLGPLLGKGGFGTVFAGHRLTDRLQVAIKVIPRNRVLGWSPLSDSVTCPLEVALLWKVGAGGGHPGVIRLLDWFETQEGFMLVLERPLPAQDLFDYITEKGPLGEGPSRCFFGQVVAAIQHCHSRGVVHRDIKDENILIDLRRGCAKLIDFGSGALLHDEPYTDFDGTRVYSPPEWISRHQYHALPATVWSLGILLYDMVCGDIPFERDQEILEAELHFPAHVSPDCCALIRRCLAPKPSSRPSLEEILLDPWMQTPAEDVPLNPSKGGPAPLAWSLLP

`NCCC1CNC(=O)c2cc(-c3cccc(Cl)c3)c(-c3ccccc3)n21` (stereo not drawn) [Compound 17, 4-(2-aminoethyl)-7-(3-chlorophenyl)-6-phenyl-3,4-dihydropyrrolo[1,2-a]pyrazin-1(2H)-one trifluoroacetate] showed a pIC50 (human PIM1) of 7.47, a pIC50 (human PIM2) of 6.93 and a pIC50 (BaF3-PIM1 cells) of 6.35.

With `NCCC1CNC(=O)c2cc(-c3cccc(OC(F)(F)F)c3)c(-c3cccc(N)c3)n21` (stereo not drawn) [Compound 32, 4-(2-aminoethyl)-6-(3-aminophenyl)-7-[3-(trifluoromethoxy)phenyl]-3,4-dihydropyrrolo[1,2-a]pyrazin-1(2H)-one hydrochloride] the pIC50 (human PIM1) was 8.10, the pIC50 (human PIM2) was 7.16 and the pIC50 (BaF3-PIM1 cells) was 5.69.

Work on `NCCC1CNC(=O)c2cc(-c3cccc(OC(F)(F)F)c3)c(-c3ccc(CO)cc3)n21` (stereo not drawn) [Compound 33, 4-(2-aminoethyl)-6-[4-(hydroxymethyl)phenyl]-7-[3-(trifluoromethoxy)phenyl]-3,4-dihydropyrrolo[1,2-a]pyrazin-1(2H)-one hydrochloride] yielded a pIC50 (human PIM1) of 8.40, a pIC50 (human PIM2) of 7.82 and a pIC50 (BaF3-PIM1 cells) of 6.22.

`NCCC1CNC(=O)c2cc(-c3cccc(C(F)(F)F)c3)c(-c3ccc(CO)cc3)n21` (stereo not drawn) [Compound 38, 4-(2-aminoethyl)-6-[4-(hydroxymethyl)phenyl]-7-[3-(trifluoromethyl)phenyl]-3,4-dihydropyrrolo[1,2-a]pyrazin-1(2H)-one hydrochloride] was tested, and the pIC50 (human PIM1) was 7.70, the pIC50 (human PIM2) was 6.99 and the pIC50 (BaF3-PIM1 cells) was 5.52.

`NCCC1CNC(=O)c2cc(-c3cccc(C(F)(F)F)c3)c(-c3ccc(O)cc3)n21` (stereo not drawn) [Compound 43, 4-(2-aminoethyl)-6-(4-hydroxyphenyl)-7-[3-(trifluoromethyl)phenyl]-3,4-dihydropyrrolo[1,2-a]pyrazin-1(2H)-one hydrochloride] gave a pIC50 (human PIM1) of 7.92, a pIC50 (human PIM2) of 7.68 and a pIC50 (BaF3-PIM1 cells) of 5.15.

Compound `NCCC1CNC(=O)c2cc(-c3ccnc(Cl)c3)c(-c3ccc(CO)cc3)n21` (stereo not drawn) [Compound 44, 4-(2-aminoethyl)-7-(2-chloropyridin-4-yl)-6-[4-(hydroxymethyl)phenyl]-3,4-dihydropyrrolo[1,2-a]pyrazin-1(2H)-one hydrochloride] has a pIC50 (human PIM1) of 7.62, a pIC50 (human PIM2) of 6.96 and a pIC50 (BaF3-PIM1 cells) of 5.18.

With `NC(=O)c1ccc(-c2c(-c3cccc(OC(F)(F)F)c3)cc3n2C(CCO)CNC3=O)cc1` (stereo not drawn) [Compound 77, 4-{4-(2-hydroxyethyl)-1-oxo-7-[3-(trifluoromethoxy)phenyl]-1,2,3,4-tetrahydropyrrolo[1,2-a]pyrazin-6-yl}benzamide] the pIC50 (human PIM1) was 8.15, the pIC50 (human PIM2) was 7.24 and the pIC50 (BaF3-PIM1 cells) was 5.63.

With `CN(C)CCNC(=O)c1ccc(-c2c(-c3cccc(OC(F)(F)F)c3)cc3n2C(CCO)CNC3=O)cc1` (stereo not drawn) [Compound 78, N-[2-(dimethylamino)ethyl]-4-{4-(2-hydroxyethyl)-1-oxo-7-[3-(trifluoromethoxy)phenyl]-1,2,3,4-tetrahydropyrrolo[1,2-a]pyrazin-6-yl}benzamide trifluoroacetate] the pIC50 (human PIM1) was 8.22, the pIC50 (human PIM2) was 7.05 and the pIC50 (BaF3-PIM1 cells) was 5.39.

`CN(C)C(=O)c1ccc(-c2c(-c3cccc(OC(F)(F)F)c3)cc3n2C(CCO)CNC3=O)cc1` (stereo not drawn) [Compound 79, 4-{4-(2-hydroxyethyl)-1-oxo-7-[3-(trifluoromethoxy)phenyl]-1,2,3,4-tetrahydropyrrolo[1,2-a]pyrazin-6-yl}-N,N-dimethylbenzamide] gave a pIC50 (human PIM1) of 7.89, a pIC50 (human PIM2) of 7.03 and a pIC50 (BaF3-PIM1 cells) of 5.91.

Work on `CNC(=O)c1ccc(-c2c(-c3cccc(OC(F)(F)F)c3)cc3n2C(CCO)CNC3=O)cc1` (stereo not drawn) [Compound 80, 4-{4-(2-hydroxyethyl)-1-oxo-7-[3-(trifluoromethoxy)phenyl]-1,2,3,4-tetrahydropyrrolo[1,2-a]pyrazin-6-yl}-N-methylbenzamide] yielded a pIC50 (human PIM1) of 7.70, a pIC50 (human PIM2) of 7.12 and a pIC50 (BaF3-PIM1 cells) of 5.42.

Compound `CN1CCC(NC(=O)c2ccc(-c3c(-c4cccc(OC(F)(F)F)c4)cc4n3C(CCO)CNC4=O)cc2)CC1` (stereo not drawn) [Compound 81, 4-{4-(2-hydroxyethyl)-1-oxo-7-[3-(trifluoromethoxy)phenyl]-1,2,3,4-tetrahydropyrrolo[1,2-a]pyrazin-6-yl}-N-(1-methylpiperidin-4-yl)benzamide trifluoroacetate] has a pIC50 (human PIM1) of 7.96, a pIC50 (human PIM2) of 7.16 and a pIC50 (BaF3-PIM1 cells) of 5.22.

`O=C1NCC(CCO)n2c1cc(-c1cccc(OC(F)(F)F)c1)c2-c1ccc(CO)cc1` (stereo not drawn) [Compound 84, 4-(2-hydroxyethyl)-6-[4-(hydroxymethyl)phenyl]-7-[3-(trifluoromethoxy)phenyl]-3,4-dihydropyrrolo[1,2-a]pyrazin-1(2H)-one] showed a pIC50 (human PIM1) of 7.96, a pIC50 (human PIM2) of 7.05 and a pIC50 (BaF3-PIM1 cells) of 6.65.

With `NCC[C@H]1CNC(=O)c2cc(-c3cccc(OC(F)(F)F)c3)c(-c3ccc(O)cc3)n21` [Compound 93, (4S)-4-(2-aminoethyl)-6-(4-hydroxyphenyl)-7-[3-(trifluoromethoxy)phenyl]-3,4-dihydropyrrolo[1,2-a]pyrazin-1(2H)-one hydrochloride] the pIC50 (human PIM1) was 9.00, the pIC50 (human PIM2) was 7.80 and the pIC50 (BaF3-PIM1 cells) was 6.16.

In the case of `CS(=O)(=O)c1ccc(-c2c(-c3cccc(OC(F)(F)F)c3)cc3n2[C@@H](CCN)CNC3=O)cc1` [Compound 96, (4S)-4-(2-aminoethyl)-6-[4-(methylsulfonyl)phenyl]-7-[3-(trifluoromethoxy)phenyl]-3,4-dihydropyrrolo[1,2-a]pyrazin-1(2H)-one hydrochloride], the pIC50 (human PIM1) was 9.00, the pIC50 (human PIM2) was 8.52 and the pIC50 (BaF3-PIM1 cells) was 5.26.

Work on `NCCC[C@H]1CNC(=O)c2cc(-c3cccc(OC(F)(F)F)c3)c(-c3ccc(O)cc3)n21` [Compound 104, (4S)-4-(3-aminopropyl)-6-(4-hydroxyphenyl)-7-[3-(trifluoromethoxy)phenyl]-3,4-dihydropyrrolo[1,2-a]pyrazin-1(2H)-one hydrochloride] yielded a pIC50 (human PIM1) of 8.40, a pIC50 (human PIM2) of 7.32 and a pIC50 (BaF3-PIM1 cells) of 5.15.

For `NCCC[C@H]1CNC(=O)c2cc(-c3cccc(OC(F)(F)F)c3)c(-c3ccc(CO)cc3)n21` [Compound 105, (4S)-4-(3-aminopropyl)-6-[4-(hydroxymethyl)phenyl]-7-[3-(trifluoromethoxy)phenyl]-3,4-dihydropyrrolo[1,2-a]pyrazin-1(2H)-one hydrochloride], the pIC50 (human PIM1) was 7.80, the pIC50 (human PIM2) was 6.96 and the pIC50 (BaF3-PIM1 cells) was 5.16.

`CN1CCN(Cc2ccc(-c3c(-c4cccc(OC(F)(F)F)c4)cc4n3[C@@H](CCCl)CNC4=O)cc2)CC1` [Compound 106, (4S)-4-(2-chloroethyl)-6-{4-[(4-methylpiperazin-1-yl)methyl]phenyl}-7-[3-(trifluoromethoxy)phenyl]-3,4-dihydropyrrolo[1,2-a]pyrazin-1(2H)-one] gave a pIC50 (human PIM1) of 7.57, a pIC50 (human PIM2) of 7.00 and a pIC50 (BaF3-PIM1 cells) of 6.68.

`CS(=O)(=O)c1ccc(-c2c(-c3cccc(OC(F)(F)F)c3)cc3n2[C@@H](CCCN)CNC3=O)cc1` [Compound 109, (4S)-4-(3-aminopropyl)-6-[4-(methylsulfonyl)phenyl]-7-[3-(trifluoromethoxy)phenyl]-3,4-dihydropyrrolo[1,2-a]pyrazin-1(2H)-one hydrochloride] was tested, and the pIC50 (human PIM1) was 7.96, the pIC50 (human PIM2) was 7.09 and the pIC50 (BaF3-PIM1 cells) was 5.19.
